In PMC5855801, “Benzothiophenone Derivatives Targeting Mutant Forms of Estrogen Receptor-α in Hormone-Resistant Breast Cancers” (International Journal of Molecular Sciences, 2018):
Where two headings read alike, the source gives them in different places.

How the values were obtained:
ERα [1] = target: T1, ERα (Homo sapiens, UniProt P03372); test: Estrogen-responsive luciferase reporter transcriptional assay in T47DKBluc cells; type: cell-based; conditions: 1 nM E2, 24 h; for IC50: read-out: IC50 against ERα in the luciferase reporter-based transcriptional assay
T1 construct: endogenous in cells; host or cells: T47DKBluc (ATCC CRL-2865)
T1 sequence (P03372 1-595): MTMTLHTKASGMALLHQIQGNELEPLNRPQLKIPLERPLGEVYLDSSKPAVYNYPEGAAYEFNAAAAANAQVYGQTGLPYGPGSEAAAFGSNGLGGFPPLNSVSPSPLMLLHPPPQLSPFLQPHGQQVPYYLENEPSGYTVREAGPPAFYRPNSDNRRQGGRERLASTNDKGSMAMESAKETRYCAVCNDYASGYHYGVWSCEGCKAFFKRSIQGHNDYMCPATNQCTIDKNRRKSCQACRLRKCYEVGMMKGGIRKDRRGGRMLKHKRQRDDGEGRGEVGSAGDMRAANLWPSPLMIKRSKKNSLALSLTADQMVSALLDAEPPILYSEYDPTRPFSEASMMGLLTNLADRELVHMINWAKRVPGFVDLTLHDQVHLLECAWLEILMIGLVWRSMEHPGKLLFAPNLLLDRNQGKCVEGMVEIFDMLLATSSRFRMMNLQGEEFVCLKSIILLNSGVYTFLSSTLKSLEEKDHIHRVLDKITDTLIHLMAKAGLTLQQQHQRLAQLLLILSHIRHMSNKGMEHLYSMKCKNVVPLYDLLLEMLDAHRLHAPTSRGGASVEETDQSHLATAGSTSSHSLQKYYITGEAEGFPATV
Protocol: T47DKBluc cells (ATCC® CRL-2865^TM, Manassa, VA, USA) stably transfected with a 3X-ERE–promoter–luciferase reporter gene construct, pGL2.TATA.Inr.luc.neo [38], were used to measure inhibition of ERα-driven transcriptional activity of the luciferase reporter.
This assay was performed as described previously. Briefly, ERα-positive T47DKBluc cells were grown in phenol red-free RPMI 1640 supplemented with 10% CSS for 5 days. The cells were seeded on 96-well plates (2 × 10^4 cells/well). After 24 h, the cells were treated with test compounds in the presence of 1 nM E2. Twenty four hours post-treatment, the cells were lysed with 50 μL of 1× passive lysis buffer (Promega, Madison, WI, USA). Twenty microliters of the lysate from each treatment were transferred onto a white, 96-well, flat-bottomed plate (Corning Life Sciences, Corelle, NY, USA), and the luminescent signal was measured after adding 50 μL of the luciferase assay reagent (Promega, Madison, WI, USA) on a Tecan M200Pro microplate reader (Tecan, Menedorf, Switzerland). Differences in growth were normalised against total protein concentration, which was measured by the bicinchoninic acid (BCA) assay.

ERα LBD = target: T2, ERα LBD (Homo sapiens, UniProt P03372); test: Biolayer interferometry (BLI) direct binding assay; conditions: biotinylated ERα LBD on streptavidin sensor, 3–100 μM
T2 construct: ERα LBD (amino acids 302–552) was cloned into the pAN4 AviTag™ Vector; made in house
T2 sequence (P03372 302-552): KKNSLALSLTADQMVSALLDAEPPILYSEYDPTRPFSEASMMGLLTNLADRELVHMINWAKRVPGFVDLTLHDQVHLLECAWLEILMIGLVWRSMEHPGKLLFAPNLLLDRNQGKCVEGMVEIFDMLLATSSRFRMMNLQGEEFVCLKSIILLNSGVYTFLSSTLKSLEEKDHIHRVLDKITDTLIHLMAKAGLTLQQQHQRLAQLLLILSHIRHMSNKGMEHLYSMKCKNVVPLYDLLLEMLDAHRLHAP
Protocol: The direct binding of small molecules to the ERα-LBD was quantified by BLI using an Octet RED apparatus (Pall ForteBio, Menlo Park, CA, USA). ERα LBD (amino acids 302–552) was cloned into the pAN4 AviTag™ Vector, (Avidity, Aurora, CO, USA). Biotinylated ERα-LBD was purified as described previously. Biotinylated protein (bERα LBD at 0.05 mg/mL) was bound to the super streptavidin sensors (Pall ForteBio) overnight at 4 °C in assay buffer (20 mM Tris, pH 7.5, 500 mM NaCl, 0.2 mM tris(2-carboxyethyl)phosphine TCEP, 0.02 mM E2, 5% glycerol and 5% dimethyl sulfoxide (DMSO). The compounds were dissolved in the assay buffer in a two-fold dilution series ranging from 3.1–100 μM. In all experiments, a known AF2-interacting peptide, PGC-1α (Elim Biopharmaceuticals, Hayward, CA, USA) was used as a control to confirm the functionality of the bERα LBD.

[2] = target: T3, ERα-LBD and FL-PGC1α peptide (Homo sapiens, UniProt P03372); test: LanthaScreen TR-FRET ER Alpha coactivator displacement assay; type: biochemical; conditions: three-fold dilution range, dose-dependent
T3 construct: it was incubated with GST-tagged ERα-LBD (final concentration, 7.25 nM); purchased Life Technologies PV4544
T3 sequence (P03372 311-547 limits assumed): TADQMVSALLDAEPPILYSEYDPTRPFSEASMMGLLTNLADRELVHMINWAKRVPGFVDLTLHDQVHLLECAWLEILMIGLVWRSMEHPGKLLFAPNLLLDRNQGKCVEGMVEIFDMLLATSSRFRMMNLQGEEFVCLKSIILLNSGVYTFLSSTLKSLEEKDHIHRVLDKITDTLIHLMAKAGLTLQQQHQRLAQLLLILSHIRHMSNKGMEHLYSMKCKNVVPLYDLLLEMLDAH
Protocol: The LanthaScreen TR-FRET ER Alpha Coactivator Assay kit (PV4544; Life Technologies) was used as per the manufacturer’s instructions and described previously. To assess the binding of VPC-16464 to the AF2 site, it was incubated with GST-tagged ERα-LBD (final concentration, 7.25 nM) in the presence of a fluorescently-labelled co-activator peptide (fluorescein-PGC-1α) at a final concentration of 250 nM, terbium (Tb)-labelled anti-GST antibody (final concentration, 5 nM) and E2 (final concentration, EC80 […]). Cold SRC-2–3 and PGC-1α peptides were used as positive controls for AF2 site-specific binding. TR-FRET was analysed on a Synergy 4 hybrid microplate reader (BioTek, Winooski, VT, USA) with the settings at 340-nm excitation and 495- and 520-nm emission. The emission ratio (520:495) was analysed and plotted.

ERα [3] = target: T1, ERα; parameters: method as in PMID 25848700; conditions: estrogen-sensitive T47DKBluc cells; previously reported; read-out: IC50 of previously-reported template compound; cited from earlier work

SMILES | IC50 (ERα [1]) [µM] | Direct binding to ERα LBD (BLI) (ERα LBD) | further results
CC(=O)N(/N=C1\Sc2ccccc2C1=O)c1ccccc1F [compound 16487] | 4.64 | – | –
CC(=O)N(/N=C1\Sc2ccccc2C1=O)c1ccc(C)c(C)c1 [compound 16484] | 9.83 | – | –
CC(=O)N(/N=C1\Sc2ccccc2C1=O)c1ccc(C)cc1 [compound 16475] | 12.3 | – | –
CC(=O)N(/N=C1\Sc2ccccc2C1=O)c1cccc(C)c1 [compound 16457] | 3.78 | – | –
CCOc1cc(Br)cc(/C=N/NC(=O)c2ccc3c(c2)OCCO3)c1O [VPC-16230] | – | – | IC50 (ERα [3]): 5.8 µM

The next lines start with results.

IC50 (ERα [1]) [µM] | Direct binding to ERα LBD (BLI) (ERα LBD) | SMILES | further results
– | abolished | CC(=O)N(/N=C1\Oc2ccccc2C1=O)c1ccccc1Cl [VPC-16602] | IC50 against ERα in the luciferase reporter-based transcriptional assay (ERα [1]): Inactive
2.7 | direct, reversible binding | CC(=O)N(/N=C1\Sc2ccccc2C1=O)c1ccccc1Cl [VPC-16464] | Displacement of FL-PGC1α peptide from ERα-LBD AF2 site (TR-FRET) [2]: successfully displaced
– | abolished | CC(=O)N(/N=C1\Cc2ccccc2C1=O)c1ccccc1Cl [VPC-16600] | IC50 against ERα in the luciferase reporter-based transcriptional assay (ERα [1]): Inactive
2.9 | – | CC(=O)N(/N=C1\Sc2c(F)cccc2C1=O)c1ccccc1Cl [VPC-16607] | –
